Experimental data as given in EPA's CvTdb concentration-time database.

Columns and labels:
Rat [1] = assay: concentration in plasma after dosing; conditions: dosed: Potassium Perfluorobutane Sulfonate, 4 mg/kg, oral, Male, Harlan Sprague Dawley
Rat [2] = assay: concentration in plasma after dosing; conditions: dosed: Potassium Perfluorobutane Sulfonate, 4 mg/kg, oral, Male, Harlan Sprague Dawley; remark: listed apart in the source
Rat [3] = assay: concentration in brain after dosing; conditions: dosed: Potassium Perfluorobutane Sulfonate, 20 mg/kg, oral
Rat [4] = assay: concentration in kidney after dosing; conditions: dosed: Potassium Perfluorobutane Sulfonate, 20 mg/kg, oral
Rat [5] = assay: concentration in plasma after dosing; conditions: dosed: Potassium Perfluorobutane Sulfonate, 4 mg/kg, iv, Male, F344
Rat [6] = assay: concentration in liver after dosing; conditions: dosed: Potassium Perfluorobutane Sulfonate, 20 mg/kg, oral
Rat [7] = assay: concentration in plasma after dosing; conditions: dosed: Potassium Perfluorobutane Sulfonate
rat [8] = assay: amount in urine after dosing (umol)

O=S(=O)([O-])C(F)(F)C(F)(F)C(F)(F)C(F)(F)F.[K+] [Potassium Perfluorobutane Sulfonate]
concentration in plasma [ng/mL]
Conditions	1 h	3 h	5 min	24 h
Rat [1]	14800	–	–	603
Rat [2]	–	11700	398	–
Rat [5]	–	305	26400	–

Conditions	concentration in brain, Rat [3] [ng/g]	concentration in kidney, Rat [4] [ng/g]	concentration in liver, Rat [6] [ng/g]
0.5 h, Female, Harlan Sprague Dawley	538	30100	29500
0.5 h, Male, Harlan Sprague Dawley	590	19000	61000
0.5 h, Male, Harlan Sprague Dawley - this seems too small	725	19900	95200
1 h, Female, Harlan Sprague Dawley	–	17600	42000
1 h, Male, Harlan Sprague Dawley	1120	14900	75600
3 h, Female, Harlan Sprague Dawley	–	10900	5790
3 h, Male, Harlan Sprague Dawley	769	19700	87000
6 h, Female, Harlan Sprague Dawley	–	1290	910
6 h, Male, Harlan Sprague Dawley	562	15200	51600
12 h, Male, Harlan Sprague Dawley	–	1960	7420

concentration in plasma [ng/mL], Rat [7]
Conditions	4 mg/kg	20 mg/kg
0.25 h, iv, Male, F344	28000	–
0.25 h, oral, Male, Harlan Sprague Dawley	4690	28700
0.5 h, iv, Female, Harlan Sprague-Dawley	11100	–
0.5 h, iv, Male, F344	23800	–
0.5 h, oral, Male, Harlan Sprague Dawley	9170	–
0.75 h, iv, Female, Harlan Sprague-Dawley	7790	–
0.75 h, iv, Male, F344	23800	–
0.75 h, oral, Male, Harlan Sprague Dawley	9060	49600
1 h, iv, Female, Harlan Sprague-Dawley	4090	–
1 h, iv, Male, F344	22000	–
1 h, oral, Male, Harlan Sprague Dawley	12900	–
1.5 h, iv, Male, F344	18500	–
1.5 h, oral, Male, Harlan Sprague Dawley	12100	63600
3 h, iv, Male, F344	10500	–
3 h, oral, Male, Harlan Sprague Dawley	15300	–
5 min, iv, Male, F344	33300	–
5 min, oral, Male, Harlan Sprague Dawley	537	653
6 h, iv, Male, F344	6690	–
6 h, oral, Male, Harlan Sprague Dawley	12500	–
9 h, oral, Male, Harlan Sprague Dawley	8100	15100
12 h, iv, Male, F344	1600	–
12 h, oral, Male, Harlan Sprague Dawley	9160	–
24 h, iv, Male, F344	232	–
24 h, oral, Male, Harlan Sprague Dawley	47.1	364
48 h, oral, Male, Harlan Sprague Dawley	–	42.6

CO [methanol]
rat [8], dosed: methanol, 100 mg/kg, iv, male, CDF(F344)/CrlBR
Conditions	amount in urine
0.9577 h	2.05
2.957 h	4.06
5.924 h	5.16
9.972 h	5.6
11.92 h	5.58
14.94 h	5.56

CC(C)(C)O [tert-butyl alcohol]
rat [8], inhalation, duration: 4 hr, F344 (Harlan Winkelmann)
Conditions	amount in urine
5.904 h, dosed: methyl tert-butyl ether, 38.7 ppm	0.773
5.97 h, dosed: ethyl tert-butyl ether, 40.6 ppm	0.601
11.88 h, dosed: methyl tert-butyl ether, 38.7 ppm	0.347
11.92 h, dosed: ethyl tert-butyl ether, 40.6 ppm	0.254
11.96 h, dosed: methyl tert-butyl ether, 4.5 ppm	0.24
17.95 h, dosed: methyl tert-butyl ether, 4.5 ppm	0.076
17.97 h, dosed: methyl tert-butyl ether, 38.7 ppm	0.126
17.99 h, dosed: ethyl tert-butyl ether, 40.6 ppm	0.187
23.91 h, dosed: methyl tert-butyl ether, 4.5 ppm	0.0671
23.93 h, dosed: methyl tert-butyl ether, 38.7 ppm	0.0789
23.94 h, dosed: ethyl tert-butyl ether, 40.6 ppm	0.0668
29.91 h, dosed: methyl tert-butyl ether, 38.7 ppm	0.0315
29.93 h, dosed: ethyl tert-butyl ether, 40.6 ppm	0.0668
29.96 h, dosed: methyl tert-butyl ether, 4.5 ppm	0.083
